Test results as given in paper PMC9721426, “Novel piperine-carboximidamide hybrids: design, synthesis, and antiproliferative activity via a multi-targeted inhibitory pathway” (Journal of Enzyme Inhibition and Medicinal Chemistry, 2022).

Key:
p38α = tested on: p38α; parameters: method as in earlier work; conditions: cited from earlier work
BRAF^V600E = tested on: BRAF^V600E; parameters: method as in earlier work; conditions: cited from earlier work
four cancer cell lines = tested on: four cancer cell lines; parameters: method as in PMID 35667253; conditions: read-out: GI50 against the tested four cancer cell lines; cited from earlier work
EGFR = target: T1, EGFR (Homo sapiens, UniProt P00533); parameters: method as in PMID 35667253; conditions: cited from earlier work
T1 construct: cytoplasmic domain (EGFR -CD, amino acids 645–1186); His6 (N); made in house; host or cells: Sf-9 insect cells (baculovirus, pBlueBacHis2B / pFASTBacHTc)

CDK2 = tested on: CDK2; parameters: method as in PMID 35667253; conditions: cited from earlier work
c-Met = tested on: c-Met; parameters: method as in PMID 35667253; conditions: cited from earlier work
[1] = MTT cell viability assay on normal mammary epithelial cells; type: cell-based; conditions: human, MCF-10A mammary epithelial cells, MCF-10A normal cells, 4 days incubation
Experimental: A human mammary gland epithelial (MCF-10A) normal cell line was used to perform the viability test. The viability of compounds VIa-k was determined using the MTT assay after 4 days of incubation with MCF-10A cells[26]^,[27].
The MTT assay was used to assess how the synthetic compounds impacted the viability of mammary epithelial cells (MCF-10A)[26]^,[27]. Appendix A. […]
4.2. Biological evaluation
4.2.1. Cytotoxic activity using MTT Assay and evaluation of IC50
MTT assay was carried out to study the effect of compounds on mammary epithelial cells (MCF-10A)26,27. The medium in which cells were propagated contained Dulbecco's modified Eagle's medium (DMEM)/ Ham's F-12 medium (1:1) supplemented with epidermal growth factor (20 ng/mL), hydrocortisone (500 ng/mL), insulin (10 μg/mL), 2 mM glutamine and 10% foetal calf serum. After every 2-3 days, the cells were passaged using trypsin ethylenediamine tetra acetic acid (EDTA). The cells were seeded at a density of 10^4 cells mL-1 in flat-bottomed culture plates containing 96 wells each. […]
(§1) A single compound was designated with four wells followed by incubation of plates for 96h at 37°C. After incubation, medium was removed completely from the plates followed by addition of MTT (0.4 mg/mL in medium) to each well and subsequent incubation of plates for 3h. MTT (along with the medium) was removed and DMSO (150μL) was added to each well of the culture plates, followed by vortexing and subsequent measurement of absorbance (at 540 nm) using microplate reader. […]

[2] = tested on: A-549 (epithelial cancer cell line); test: Antiproliferative MTT assay, A-549; type: cell-based; conditions: Homo sapiens, A549; A-549, MTT; read-out: Antiproliferative activity IC50 ± SEM, A-549
Experimental: (§2) The MTT assay was performed using various cell lines in accordance with previously reported procedures[28]^,[29] to investigate the antiproliferative potential of VIa-k. Refer to Appendix A. […]
(§3) added (in 200 μL medium to yield a final concentration of 0.1% v/v) to the wells of plates. A single compound was designated with four wells followed by incubation of […]
as §1, with “After” for “A single compound was designated with four wells followed by incubation of plates for 96h at 37°C. After”, “reader. The data are shown as percentage inhibition of proliferation in comparison with controls containing 4.2.1.2. Assay for antiproliferative effect” for “reader.”
(§4) The percentage cytotoxicity of compounds was calculated using the following […]
(§5) Where ATC= Absorbance of treated cells and AC= Absorbance of control. […]
(§6) used as positive control in the assay. […]

[3] = tested on: MCF-7 (breast cancer cell line); test: Antiproliferative MTT assay, MCF-7; type: cell-based; conditions: Homo sapiens, MCF7; MCF-7, MTT; read-out: Antiproliferative activity IC50 ± SEM, MCF-7
Experimental: as §2, §3
as §1, with “After” for “A single compound was designated with four wells followed by incubation of plates for 96h at 37°C. After”, “reader. The data are shown as percentage inhibition of proliferation in comparison with controls containing 4.2.1.2. Assay for antiproliferative effect” for “reader.”
as §4, §5, §6

[4] = tested on: Panc-1 (pancreatic cancer cell line); test: Antiproliferative MTT assay, Panc-1; type: cell-based; conditions: Homo sapiens; Panc-1, MTT; read-out: Antiproliferative activity IC50 ± SEM, Panc-1
Experimental: as §2, §3
as §1, with “After” for “A single compound was designated with four wells followed by incubation of plates for 96h at 37°C. After”, “reader. The data are shown as percentage inhibition of proliferation in comparison with controls containing 4.2.1.2. Assay for antiproliferative effect” for “reader.”
as §4, §5, §6

[5] = tested on: HT-29 (colon cancer cell line); test: Antiproliferative MTT assay, HT-29; type: cell-based; conditions: Homo sapiens; HT-29, MTT; read-out: Antiproliferative activity IC50 ± SEM, HT-29
Experimental: as §2, §3
as §1, with “After” for “A single compound was designated with four wells followed by incubation of plates for 96h at 37°C. After”, “reader. The data are shown as percentage inhibition of proliferation in comparison with controls containing 4.2.1.2. Assay for antiproliferative effect” for “reader.”
as §4, §5, §6

[6] = tested on: four human cancer cell lines (Panc-1, MCF-7, HT-29, A-549); test: Antiproliferative MTT assay, average (GI50) over the four cancer cell lines; type: cell-based; conditions: for GI50: Homo sapiens, average of IC50 versus A-549, MCF-7, Panc-1, HT-29
Experimental: The average (GI50) versus the four cancer cell lines was chosen for ease of manipulation.
as §2, §3
as §1, with “After” for “A single compound was designated with four wells followed by incubation of plates for 96h at 37°C. After”, “reader. The data are shown as percentage inhibition of proliferation in comparison with controls containing 4.2.1.2. Assay for antiproliferative effect” for “reader.”
as §4, §5, §6

T1 sequence (P00533 669-1210): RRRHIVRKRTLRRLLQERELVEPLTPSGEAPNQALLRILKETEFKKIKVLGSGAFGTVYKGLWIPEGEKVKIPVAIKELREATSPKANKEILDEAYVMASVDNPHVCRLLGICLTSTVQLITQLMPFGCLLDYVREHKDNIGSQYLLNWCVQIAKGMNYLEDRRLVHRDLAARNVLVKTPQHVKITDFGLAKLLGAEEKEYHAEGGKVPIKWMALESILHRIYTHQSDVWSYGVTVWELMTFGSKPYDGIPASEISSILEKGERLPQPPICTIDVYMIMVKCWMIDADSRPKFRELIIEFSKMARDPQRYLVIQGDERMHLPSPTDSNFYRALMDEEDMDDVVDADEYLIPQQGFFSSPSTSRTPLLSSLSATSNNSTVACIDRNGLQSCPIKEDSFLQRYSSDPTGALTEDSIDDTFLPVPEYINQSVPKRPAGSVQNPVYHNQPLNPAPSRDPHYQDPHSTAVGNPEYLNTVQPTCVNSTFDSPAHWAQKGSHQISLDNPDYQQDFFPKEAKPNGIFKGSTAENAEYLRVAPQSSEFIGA

SMILES	IC50 [2]	IC50 [3]	IC50 [4]	IC50 [5]	GI50 [6]	melting point	GI50 potency relative to VIi (less potent) ([6]; ratio of GI50 values)	IC50 (p38α)	IC50 (BRAF^V600E)	GI50 (four cancer cell lines)	IC50 (EGFR)	IC50 (CDK2)	IC50 (c-Met)	viability at 4 days, 50 µM [1]
CCCCCCn1c(-c2ccc(C(=O)O/N=C(\N)c3cccc4c3OCO4)cc2)nc(-c2ccccc2)c1-c1ccccc1 [Compound 4]	–	–	–	–	–	–	–	190 nM	330 nM	–	–	–	–	–
COc1cc(OC)cc(/C(N)=N/OC(=O)c2ccc3cn[nH]c3c2)c1 [Compound 5]	–	–	–	–	–	–	–	–	–	770 nM	89 nM	14 nM	4.1 nM	–
NC(=NOC(=O)/C=C/C=C/c1ccc2c(c1)OCO2)c1ccccc1 [VIa, N'-{[(2E,4E)-5-(2H-1,3-Benzodioxol-5-yl)penta-2,4-dienoyl]oxy}benzene carboximidamide]	95 ± 10 nM	97 ± 10 nM	104 ± 10 nM	105 ± 10 nM	100 nM	175 to 177 °C	–	–	–	–	–	–	–	89%

The next lines start with results.

IC50 [2]	IC50 [3]	IC50 [4]	IC50 [5]	GI50 [6]	melting point	GI50 potency relative to VIi (less potent) ([6]; ratio of GI50 values)	SMILES	IC50 (p38α)	IC50 (BRAF^V600E)	GI50 (four cancer cell lines)	IC50 (EGFR)	IC50 (CDK2)	IC50 (c-Met)	viability at 4 days, 50 µM [1]
55 ± 6 nM	57 ± 6 nM	59 ± 6 nM	58 ± 6 nM	57 nM	157 to 160 °C	–	NC(=NOC(=O)/C=C/C=C/c1ccc2c(c1)OCO2)c1ccc(Cl)cc1 [VIb, N'-{[(2E,4E)-5-(2H-1,3-Benzodioxol-5-yl)penta-2,4-dienoyl]oxy}-4-chlorobenzene-1-carboximidamide]	–	–	–	–	–	–	85%
50 ± 5 nM	52 ± 5 nM	57 ± 5 nM	57 ± 5 nM	54 nM	–	about 1.4 fold	COc1ccc(C(N)=NOC(=O)/C=C/C=C/c2ccc3c(c2)OCO3)cc1 [VId, N'-{[(2E,4E)-5-(2H-1,3-Benzodioxol-5-yl)penta-2,4-dienoyl]oxy}-4-methoxybenzene-1-carboximidamide]	–	–	–	–	–	–	91%
